Assay [1] deals with T1, GRK5 (Homo sapiens, UniProt P34947).
T1 construct: purchased Thermo Scientific
As to the kind of experiment: Lance Kinase Activity Assay, GRK5. Particulars: biochemical Lance kinase activity assay; class symbols A-F; read-out: GRK5 LANCE Assay (IC-50). In outline:
(§1)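 IC50s from sigmoidal dose-response over 0.0025-10 μM compound, with phosphorylated ULight substrate detected by Eu anti-phospho antibody FRET after EDTA quench.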
For orientation: In TR-FRET formats the signal depends on donor and acceptor labels being close together.

The target in assay [2] is T2, GRK2 (Homo sapiens, UniProt P25098).
T2 construct: purchased Thermo Scientific
T2 sequence (P25098 1-689): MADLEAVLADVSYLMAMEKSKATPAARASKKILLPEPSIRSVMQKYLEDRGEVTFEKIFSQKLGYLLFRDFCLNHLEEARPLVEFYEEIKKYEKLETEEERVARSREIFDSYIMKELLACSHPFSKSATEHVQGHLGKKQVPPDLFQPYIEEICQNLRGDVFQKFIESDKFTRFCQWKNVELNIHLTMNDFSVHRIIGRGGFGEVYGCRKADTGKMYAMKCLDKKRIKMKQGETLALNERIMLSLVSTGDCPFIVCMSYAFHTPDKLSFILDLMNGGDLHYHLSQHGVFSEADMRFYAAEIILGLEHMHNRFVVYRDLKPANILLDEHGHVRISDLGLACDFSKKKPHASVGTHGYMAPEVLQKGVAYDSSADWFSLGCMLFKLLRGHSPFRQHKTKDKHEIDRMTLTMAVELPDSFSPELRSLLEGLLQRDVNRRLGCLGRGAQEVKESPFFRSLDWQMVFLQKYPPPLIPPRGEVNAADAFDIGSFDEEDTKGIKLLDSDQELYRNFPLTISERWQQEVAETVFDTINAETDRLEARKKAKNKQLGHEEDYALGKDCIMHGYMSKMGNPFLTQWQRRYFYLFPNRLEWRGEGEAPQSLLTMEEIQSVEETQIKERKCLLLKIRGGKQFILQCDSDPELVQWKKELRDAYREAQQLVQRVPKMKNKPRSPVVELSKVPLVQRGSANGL
The assay is described as follows: Lance Kinase Activity Assay, GRK2. The settings on record: biochemical Lance kinase activity assay; class symbols A-F; read-out: GRK2 LANCE Assay (IC-50). Summed up:
as §1

Assay [3] concerns neonatal rat ventricular cardiac myocytes (NRVCMs). The assay is described as follows: In vitro cardiomyocyte hypertrophy assay. In kind it is cell-based, Wistar rats. Particulars: inhibition of cellular hypertrophy, NRVCMs stimulated with phenylephrine 20 μM and leukemia inhibitory factor 50 ng/ml, 96 h, read-out: Hypertrophy Assay (IC-50). On the procedure: 5-6 days old Wistar rats were sacrificed by decapitation and neonatal rat ventricular cardiac myocytes (NRVCMs) were prepared using the Neonatal heart dissociation kit (Miltenyi Biotec) according to the manufacturer's instructions. The cardiac single cell suspension was resuspended in DMEM low glucose medium supplemented with 2% fetal bovine serum (FBS) and 50 μg/ml penicillin/streptomycin. 1500 cells/well were seeded on 0.1% gelatin-coated 384-well plates and incubated in medium at 37° C. and 5% CO2 for 24 h prior to the addition of test compounds to the cells at titrated concentrations. Cellular hypertrophy was then stimulated by adding phenylephrine and leukemia inhibitory factor at final concentrations of 20 μM and 50 ng/ml, respectively, and the cells were incubated for another 96 h. For immunocytochemistry, cells were fixed with 4% formaldehyde on day 5 of compound treatment and cardiomyocytes were stained with antibodies against a-actinin while cell nuclei were stained with DAPI. Image acquisition and phenotypic analysis was performed using an Image-Xpress Micro XL automated microscope (Molecular Devices).
Inhibition of cellular hypertrophy is indicated as IC50 [nM]. Compounds having an activity designated as “A” provided an IC50≤500 nM; compounds having an activity designated as “B” provided an 500 nM<IC50≤1000 nM; compounds having an activity designated as “C” provided an IC50>1000 nM.

pIC50: −log10 of the molar value.

T1 sequence (P34947 whole entry): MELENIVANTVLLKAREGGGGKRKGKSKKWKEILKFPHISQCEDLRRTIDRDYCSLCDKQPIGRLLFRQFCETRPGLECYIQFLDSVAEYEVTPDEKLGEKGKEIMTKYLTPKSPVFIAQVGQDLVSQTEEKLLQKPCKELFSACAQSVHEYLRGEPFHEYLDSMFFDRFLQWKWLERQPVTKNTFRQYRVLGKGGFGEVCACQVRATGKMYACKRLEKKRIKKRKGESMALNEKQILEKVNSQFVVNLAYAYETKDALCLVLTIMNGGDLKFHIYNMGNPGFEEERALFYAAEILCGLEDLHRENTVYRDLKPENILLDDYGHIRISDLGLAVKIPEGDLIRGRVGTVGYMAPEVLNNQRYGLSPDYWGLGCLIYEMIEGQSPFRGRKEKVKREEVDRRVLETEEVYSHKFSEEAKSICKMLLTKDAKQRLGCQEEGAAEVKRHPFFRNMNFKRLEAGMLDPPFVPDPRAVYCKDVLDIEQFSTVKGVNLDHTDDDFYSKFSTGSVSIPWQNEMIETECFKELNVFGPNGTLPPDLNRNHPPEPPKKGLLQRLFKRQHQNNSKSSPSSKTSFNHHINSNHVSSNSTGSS

`COc1ccc([C@@H](C)NC(=O)/C(C#N)=C/c2c[nH]c3ncc(-c4cnn(C5CCNCC5)c4)cc23)cc1OC` [Example 89, (R,E)-2-cyano-N-(1-(3,4-dimethoxyphenyl)ethyl)-3-(5-(1-(piperidin-4-yl)-1H-pyrazol-4-yl)-1H-pyrrolo[2,3-b]pyridin-3-yl)acrylamide]: the values for the pIC50 in assay [1], in assay [2] and in assay [3] were not below 7.30, 5.00 to 6.00 and less than 6.00, respectively.

Consider `C[C@@H](NC(=O)/C(C#N)=C/c1c[nH]c2ncc(-c3cnn(C)c3)cc12)c1ccc2c(c1)OCO2` [Example 252, (R,E)-N-(1-(benzo[d][1,3]dioxol-5-yl)ethyl)-2-cyano-3-(5-(1-methyl-1H-pyrazol-4-yl)-1H-pyrrolo[2,3-b]pyridin-3-yl)acrylamide], for which the results for the pIC50 in assay [1], in assay [2] and in assay [3] were not below 7.30, 6.00 to 6.30 and not below 6.30, respectively.

`COc1cc([C@@H](C)NC(=O)/C(C#N)=C/c2c[nH]c3ncc(-c4cnn(C)c4)cc23)ccc1F` [Example 94, (R,E)-2-cyano-N-(1-(4-fluoro-3-methoxyphenyl)ethyl)-3-(5-(1-methyl-1H-pyrazol-4-yl)-1H-pyrrolo[2,3-b]pyridin-3-yl)acrylamide]: the figures for the pIC50 in assay [1], in assay [2] and in assay [3] were not below 7.30, 7.00 to 7.30 and not below 6.30, respectively.

Take `COc1ccc([C@@H](C)NC(=O)/C(C#N)=C/c2c[nH]c3ncc(-c4ccc(CN(C)C)cc4)cc23)cc1OC` [Example 117, (R,E)-2-cyano-N-(1-(3,4-dimethoxyphenyl)ethyl)-3-(5-(4-((dimethylamino)methyl)phenyl)-1H-pyrrolo[2,3-b]pyridin-3-yl)acrylamide]: the pIC50 is not below 7.30 in assay [1], 5.00 to 6.00 in assay [2] and 6.00 to 6.30 in assay [3].

For the molecule `COc1ccc([C@@H](C)NC(=O)/C(C#N)=C/c2c[nH]c3ncc(-c4ccc(F)c(S(C)(=O)=O)c4)cc23)cc1OC` [Example 169], the pIC50 in assay [1] was not below 7.30; in assay [2], 5.00 to 6.00; in assay [3], 6.00 to 6.30.

As for `COc1ccc([C@@H](C)NC(=O)/C=C/c2c[nH]c3ncc(-c4ccc(N5CCN(C)CC5)cc4)cc23)cc1OC` [Example 113, (R,E)-N-(1-(3,4-dimethoxyphenyl)ethyl)-3-(5-(4-(4-methylpiperazin-1-yl)phenyl)-1H-pyrrolo[2,3-b]pyridin-3-yl)acrylamide], the values for the pIC50 in assay [1], in assay [2] and in assay [3] were not below 7.30, 6.00 to 6.30 and not below 6.30, respectively.

For the molecule `COc1ccc([C@@H](C)NC(=O)/C(C#N)=C/c2c[nH]c3ncc(OCCN(C)C)cc23)cc1OC` [Example 104, (R,E)-2-cyano-N-(1-(3,4-dimethoxyphenyl)ethyl)-3-(5-(2-(dimethylamino)ethoxy)-1H-pyrrolo[2,3-b]pyridin-3-yl)acrylamide], the pIC50 was not below 7.30 in assay [1], 5.00 to 6.00 in assay [2] and less than 6.00 in assay [3].

Regarding `COc1ccc([C@@H](C)NC(=O)/C=C/c2c[nH]c3ncc(-c4cccc(SC)c4)cc23)cc1OC` [Example 254, (R,E)-N-(1-(3,4-dimethoxyphenyl)ethyl)-3-(5-(3-(methylthio)phenyl)-1H-pyrrolo[2,3-b]pyridin-3-yl)acrylamide], the pIC50 in assay [1] was not below 7.30; in assay [2] it was less than 5.00; in assay [3], less than 6.00.

Turning to `COc1ccc([C@@H](C)NC(=O)/C=C/c2c[nH]c3ncc(-c4cnn5ccccc45)cc23)cc1OC` [Example 205, (R,E)-N-(1-(3,4-dimethoxyphenyl)ethyl)-3-(5-(pyrazolo[1,5-a]pyridin-3-yl)-1H-pyrrolo[2,3-b]pyridin-3-yl)acrylamide], the values for the pIC50 in assay [1], in assay [2] and in assay [3] were not below 7.30, 5.00 to 6.00 and 6.00 to 6.30, respectively.

`COc1ccc([C@@H](CO)NC(=O)/C(C#N)=C/c2c[nH]c3ncc(-c4cnn(C)c4)cc23)cc1OC` [Example 92, (S,E)-2-cyano-N-(1-(3,4-dimethoxyphenyl)-2-hydroxyethyl)-3-(5-(1-methyl-1H-pyrazol-4-yl)-1H-pyrrolo[2,3-b]pyridin-3-yl)acrylamide]: the values for the pIC50 in assay [1], in assay [2] and in assay [3] were not below 7.30, 5.00 to 6.00 and less than 6.00, respectively.

Regarding `COc1ccc([C@@H](C)NC(=O)/C=C/c2c[nH]c3ncc(-c4cnn(CCN(C)C)c4)cc23)cc1OC` [Example 213, (R,E)-N-(1-(3,4-dimethoxyphenyl)ethyl)-3-(5-(1-(2-(dimethylamino)ethyl)-1H-pyrazol-4-yl)-1H-pyrrolo[2,3-b]pyridin-3-yl)acrylamide], the pIC50 in assay [1] is not below 7.30; in assay [2] it was 5.00 to 6.00; in assay [3] it was less than 6.00.

The values above are taken from patent US20240294522A1 (Lead Discovery Center GmbH, priority 2021, published 2024).
